Assay results as given in patent US20020072499A1, “Treatment with small peptides to effect antifibrotic activity” (Histatek, Inc., priority 1999, published 2002).
Peptide text beside a SMILES is read from it. * marks the point of attachment. For = O=C*

Experiments:
BALB/c mice = conditions: mouse, in vivo
[1] = tested on: murine model of allergen-induced chronic asthma (OVA immunized BALB/c mice); conditions: mouse, in vivo
Description: The chronic murine model of asthma was used to test the effects of f-Met-Leu-Phe-Phe (HK-X) on persistent asthma. This murine system is a model of chronic asthma where there is enormous infiltration of inflammatory cells in association with outer boundaries of the airway basal lamina. An immunization period of five (5) months during which mice were subjected to an initial immunization procedure during the first month followed by weekly intranasal challenges with OVA established a condition of persistent asthma in the mice. […] Immunized mice were treated with HK-X eight times over a sixteen day period (i.e., every other day). […]
Airway Plug scores—by using a scoring system from + to ++++, the severity of mucus secretion into medium and large-sized airways could be measured according to the previous report (Henderson et al., J. Exp. Medicine, vol. 1-84, pp. 1483-94, Oct. 1996).
Fraction of Epithelial Cells Containing Mucous Granules—was evaluated by randomly counting the number of epithelial cells containing mucus out of 100 epithelial cells in medium to large airways (600 μm to 1,000 μm diameters). A total of 10 fields were counted in different lung lobes and the mean score was tabulated. […]
Numbers of various cell types—eosinophils and neutrophils were quantified by counting the numbers per high power field (40×) in an area of 2,200 u^2 in association with airways. […]

in vivo = conditions: mouse
Description: The HK-X/OVA group of animals received HK-X dosage of 0.4 mg/Kg body weight (50 ug per 20 gm body weight per day) while the saline group received the same dosage of HK-X without OVA. […] Therefore, to maintain the plasma levels during the course of the allergen challenge, these mice received additional HK-X doses intranasally immediately before OVA challenge.

[2] = tested on: murine model of allergen-induced chronic asthma subjected to repeated allergic challenge (Balb/C mice); conditions: mouse, in vivo
Description: This example reports the results of tests wherein mice having induced chronic asthma and having been treated in accord with the present invention are subsequently further challenged intranasally (“IN”) with OVA. Materials were the same as in Example 1. Balb/C mice were repeatedly immunized with OVA over a six month period as in Example 1. Thereafter, the mice were treated with 50 μg of HKX per dose intranasally for eight doses over a 16 day period, as in example 1. Then, a further regimen administered a 50 μg dose of HK-X 15-30 minutes prior to intranasal OVA challenge. This regimen was repeated for a total of three days. On the day after the last treatment the mice were sacrificed. HK-X was prepared in the same manner as in Example 1. […] The trachea and left lung (upper and lower lobes) were collected and fixed in 10% formalin at 20° C. for 15 hr. After embedding in paraffin, the tissues were cut into 5 μm sections. Eosinophils were stained in the lung tissue with Modified Discombe's Solution. […] Occlusion of the airway diameter by mucus was assessed on a semiquantitative scale ranging from 0 to 5+. For each mouse, individuals blinded to the protocol design assessed 10 airway sections randomly distributed throughout the left lung for mucus occlusion by morphometric analysis. […]

For `CSCC[C@H](NC=O)C(=O)N[C@@H](CC(C)C)C(=O)N[C@@H](Cc1ccccc1)C(=O)N[C@@H](Cc1ccccc1)C(=O)O` [HK-X, f-Met-Leu-Phe-Phe] (For-MLFF-OH; C-terminus assumed), the “adverse reactions or signs of sickness” value (BALB/c mice) was “No adverse reactions or signs of sickness were observed”, the “pulmonary tissue of control mice administered HK-X in saline” value [1] was “free of inflammatory cells and fibrotic collagen deposits” and the half-life (in vivo) was < 30 min. For the same compound, the “number of eosinophils in the lung tissues” value [2] was 0.75±0.18 cells per 2,200 μm^2 and the “pulmonary tissue of control mice administered HK-X in saline” value [2] was “free of inflammatory cells and fibrotic collagen deposits”.
